Experimental data as given in patent US12660819B2, “Herbicidal derivatives” (SYNGENTA CROP PROTECTION AG, priority 2020, dated 2026).

What was measured:
Format in all cases: in vivo
Setaria faberi (SETFA) [1] = experiment: Post-emergence Test (glasshouse, percentage damage to the plant); settings: post-emergence spray, 1000 g/ha unless otherwise stated, evaluated after 13 days
Summary of the method: (§1)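 Compound formulated in 50:50 acetone/water with 0.5% Tween 20 was diluted to an aqueous spray and applied at 1000 g/ha, unless otherwise stated, onto sown pots. Evaluation after 13 days gave percentage damage, banded into a 1–5 score.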

[2] = system: Amaranthus retoflexus (AMARE); experiment: as above; settings: post-emergence spray, 1000 g/ha unless otherwise stated, evaluated after 13 days
Summary of the method: (§2)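 Seeds sown in pots in glasshouse (24/16 °C day/night, 14 h light, 65% humidity), then sprayed with compound at 1000 g/ha unless stated, from acetone/water 50:50 with 0.5% Tween 20. Damage assessed 13 days later on five-point scale (1=0–20% to 5=81–100%).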

Zea mays (ZEAMX) [3] = experiment: as above; settings: post-emergence spray, 1000 g/ha unless otherwise stated, evaluated after 13 days
Summary of the method: as §1

[4] = system: Ipomoea hederacea (IPOHE); experiment: as above; settings: post-emergence spray, 1000 g/ha unless otherwise stated, evaluated after 13 days
Summary of the method: as §1

[5] = system: Echinochloa crus-galli (ECHCG); experiment: as above; settings: post-emergence spray, 1000 g/ha unless otherwise stated, evaluated after 13 days
Summary of the method: as §2

[6] = system: Abutilon theophrasti (ABUTH); experiment: as above; settings: post-emergence spray, 1000 g/ha unless otherwise stated, evaluated after 13 days
Summary of the method: as §2

[7] = system: Echinochloa crus-galli (ECHCG); experiment: Pre-emergence Test (glasshouse, percentage damage to the plant); settings: 1000 g/ha unless otherwise stated, five-point scale
[8] = system: Ipomoea hederacea (IPOHE); experiment: as above; settings: 1000 g/ha unless otherwise stated, five-point scale
Setaria faberi (SETFA) [9] = experiment: as above; settings: 1000 g/ha unless otherwise stated, five-point scale
Zea mays (ZEAMX) [10] = experiment: as above; settings: 1000 g/ha unless otherwise stated, five-point scale
[11] = system: Amaranthus retoflexus (AMARE); experiment: as above; settings: 1000 g/ha unless otherwise stated, five-point scale
[12] = system: Abutilon theophrasti (ABUTH); experiment: as above; settings: 1000 g/ha unless otherwise stated, five-point scale

CCn1c(C)c(-c2ccc(F)c(C#N)c2)c(=O)c(C(=O)O)c1-c1ccc(Cl)c(Cl)c1 [Compound 91, 5-(3-cyano-4-fluoro-phenyl)-2-(3,4-dichlorophenyl)-1-ethyl-6-methyl-4-oxo-pyridine-3-carboxylic acid]
Post-emergence Test SETFA, percentage damage to the plant (five-point scale) (Setaria faberi (SETFA) [1]): 4 (4=61-80%)
Post-emergence Test AMARE, percentage damage to the plant (five-point scale) [2]: 3 (3=41-60%)
Post-emergence Test ZEAMX, percentage damage to the plant (five-point scale) (Zea mays (ZEAMX) [3]): 2 (2=21-40%)
Post-emergence Test IPOHE, percentage damage to the plant (five-point scale) [4]: 3 (3=41-60%)
Post-emergence Test ECHCG, percentage damage to the plant (five-point scale) [5]: 4 (4=61-80%)
Post-emergence Test ABUTH, percentage damage to the plant (five-point scale) [6]: 3 (3=41-60%)
percentage damage to the plant, ECHCG [7]: 4 (4=61-80%)
percentage damage to the plant, IPOHE [8]: 3 (3=41-60%)
percentage damage to the plant, SETFA (Setaria faberi (SETFA) [9]): 4 (4=61-80%)
percentage damage to the plant, ZEAMX (Zea mays (ZEAMX) [10]): 1 (1=0-20%)
percentage damage to the plant, AMARE [11]: 2 (2=21-40%)
percentage damage to the plant, ABUTH [12]: 2 (2=21-40%)

CCn1c(C)c(-c2ccc(F)c(C#N)c2)c(=O)c(C(=O)O)c1-c1ccc(Cl)c(Cl)c1 [Compound 92, 5-(3-cyano-4-fluoro-phenyl)-2-(3,4-dichlorophenyl)-1-ethyl-6-methyl-4-oxo-pyridine-3-carboxylic acid]
Post-emergence Test SETFA, percentage damage to the plant (five-point scale) (Setaria faberi (SETFA) [1]): 1 (1=0-20%)
Post-emergence Test AMARE, percentage damage to the plant (five-point scale) [2]: 1 (1=0-20%)
Post-emergence Test ZEAMX, percentage damage to the plant (five-point scale) (Zea mays (ZEAMX) [3]): 1 (1=0-20%)
Post-emergence Test IPOHE, percentage damage to the plant (five-point scale) [4]: 3 (3=41-60%)
Post-emergence Test ECHCG, percentage damage to the plant (five-point scale) [5]: 1 (1=0-20%)
Post-emergence Test ABUTH, percentage damage to the plant (five-point scale) [6]: 2 (2=21-40%)
percentage damage to the plant, ECHCG [7]: 1 (1=0-20%)
percentage damage to the plant, IPOHE [8]: 1 (1=0-20%)
percentage damage to the plant, SETFA (Setaria faberi (SETFA) [9]): 1 (1=0-20%)
percentage damage to the plant, ZEAMX (Zea mays (ZEAMX) [10]): 1 (1=0-20%)
percentage damage to the plant, AMARE [11]: 1 (1=0-20%)
percentage damage to the plant, ABUTH [12]: 1 (1=0-20%)

CCn1c(C)c(-c2ccc(SC)cc2)c(=O)c(C(=O)O)c1-c1ccc(Cl)c(Cl)c1 [Compound 93, 2-(3,4-dichlorophenyl)-1-ethyl-6-methyl-5-(4-methylsulfanylphenyl)-4-oxo-pyridine-3-carboxylic acid]
Post-emergence Test SETFA, percentage damage to the plant (five-point scale) (Setaria faberi (SETFA) [1]): 2 (2=21-40%)
Post-emergence Test AMARE, percentage damage to the plant (five-point scale) [2]: 1 (1=0-20%)
Post-emergence Test ZEAMX, percentage damage to the plant (five-point scale) (Zea mays (ZEAMX) [3]): 1 (1=0-20%)
Post-emergence Test IPOHE, percentage damage to the plant (five-point scale) [4]: 2 (2=21-40%)
Post-emergence Test ECHCG, percentage damage to the plant (five-point scale) [5]: 3 (3=41-60%)
Post-emergence Test ABUTH, percentage damage to the plant (five-point scale) [6]: 2 (2=21-40%)
percentage damage to the plant, ECHCG [7]: 3 (3=41-60%)
percentage damage to the plant, IPOHE [8]: 1 (1=0-20%)
percentage damage to the plant, SETFA (Setaria faberi (SETFA) [9]): 4 (4=61-80%)
percentage damage to the plant, ZEAMX (Zea mays (ZEAMX) [10]): 1 (1=0-20%)
percentage damage to the plant, AMARE [11]: 1 (1=0-20%)
percentage damage to the plant, ABUTH [12]: 1 (1=0-20%)

CCn1c(C)c(-c2cc(F)cc(OCC(F)(F)F)c2)c(=O)c(C(=O)O)c1-c1ccc(Cl)c(Cl)c1 [Compound 94, 2-(3,4-dichlorophenyl)-1-ethyl-5-[3-fluoro-5-(2,2,2-trifluoroethoxy)phenyl]-6-methyl-4-oxo-pyridine-3-carboxylic acid]
Post-emergence Test SETFA, percentage damage to the plant (five-point scale) (Setaria faberi (SETFA) [1]): 1 (1=0-20%)
Post-emergence Test AMARE, percentage damage to the plant (five-point scale) [2]: 1 (1=0-20%)
Post-emergence Test ZEAMX, percentage damage to the plant (five-point scale) (Zea mays (ZEAMX) [3]): 1 (1=0-20%)
Post-emergence Test IPOHE, percentage damage to the plant (five-point scale) [4]: 1 (1=0-20%)
Post-emergence Test ECHCG, percentage damage to the plant (five-point scale) [5]: 1 (1=0-20%)
Post-emergence Test ABUTH, percentage damage to the plant (five-point scale) [6]: 1 (1=0-20%)
percentage damage to the plant, ECHCG [7]: 1 (1=0-20%)
percentage damage to the plant, IPOHE [8]: 1 (1=0-20%)
percentage damage to the plant, SETFA (Setaria faberi (SETFA) [9]): 1 (1=0-20%)
percentage damage to the plant, ZEAMX (Zea mays (ZEAMX) [10]): 1 (1=0-20%)
percentage damage to the plant, AMARE [11]: 1 (1=0-20%)
percentage damage to the plant, ABUTH [12]: 1 (1=0-20%)

CCn1c(C)c(-c2ccc(OC(F)(F)F)cc2)c(=O)c(C(=O)O)c1-c1ccc(Cl)c(Cl)c1 [Compound 95, 2-(3,4-dichlorophenyl)-1-ethyl-6-methyl-4-oxo-5-[4-(trifluoromethoxy)phenyl]pyridine-3-carboxylic acid]
Post-emergence Test SETFA, percentage damage to the plant (five-point scale) (Setaria faberi (SETFA) [1]): 3 (3=41-60%)
Post-emergence Test AMARE, percentage damage to the plant (five-point scale) [2]: 3 (3=41-60%)
Post-emergence Test ZEAMX, percentage damage to the plant (five-point scale) (Zea mays (ZEAMX) [3]): 2 (2=21-40%)
Post-emergence Test IPOHE, percentage damage to the plant (five-point scale) [4]: 2 (2=21-40%)
Post-emergence Test ECHCG, percentage damage to the plant (five-point scale) [5]: 3 (3=41-60%)
Post-emergence Test ABUTH, percentage damage to the plant (five-point scale) [6]: 3 (3=41-60%)
percentage damage to the plant, ECHCG [7]: 2 (2=21-40%)
percentage damage to the plant, IPOHE [8]: 1 (1=0-20%)
percentage damage to the plant, SETFA (Setaria faberi (SETFA) [9]): 4 (4=61-80%)
percentage damage to the plant, ZEAMX (Zea mays (ZEAMX) [10]): 1 (1=0-20%)
percentage damage to the plant, AMARE [11]: 1 (1=0-20%)
percentage damage to the plant, ABUTH [12]: 1 (1=0-20%)

CCOc1ccc(-c2c(C)n(CC)c(-c3ccc(Cl)c(Cl)c3)c(C(=O)O)c2=O)cc1 [Compound 96, 2-(3,4-dichlorophenyl)-5-(4-ethoxyphenyl)-1-ethyl-6-methyl-4-oxo-pyridine-3-carboxylic acid]
Post-emergence Test SETFA, percentage damage to the plant (five-point scale) (Setaria faberi (SETFA) [1]): 3 (3=41-60%)
Post-emergence Test AMARE, percentage damage to the plant (five-point scale) [2]: 1 (1=0-20%)
Post-emergence Test ZEAMX, percentage damage to the plant (five-point scale) (Zea mays (ZEAMX) [3]): 2 (2=21-40%)
Post-emergence Test IPOHE, percentage damage to the plant (five-point scale) [4]: 3 (3=41-60%)
Post-emergence Test ECHCG, percentage damage to the plant (five-point scale) [5]: 2 (2=21-40%)
Post-emergence Test ABUTH, percentage damage to the plant (five-point scale) [6]: 4 (4=61-80%)
percentage damage to the plant, ECHCG [7]: 1 (1=0-20%)
percentage damage to the plant, IPOHE [8]: 1 (1=0-20%)
percentage damage to the plant, SETFA (Setaria faberi (SETFA) [9]): 2 (2=21-40%)
percentage damage to the plant, ZEAMX (Zea mays (ZEAMX) [10]): 1 (1=0-20%)
percentage damage to the plant, AMARE [11]: 1 (1=0-20%)
percentage damage to the plant, ABUTH [12]: 1 (1=0-20%)

CCOc1cccc(-c2c(C)n(CC)c(-c3ccc(Cl)c(Cl)c3)c(C(=O)O)c2=O)c1 [Compound 98, 2-(3,4-dichlorophenyl)-5-(3-ethoxyphenyl)-1-ethyl-6-methyl-4-oxo-pyridine-3-carboxylic acid]
Post-emergence Test SETFA, percentage damage to the plant (five-point scale) (Setaria faberi (SETFA) [1]): 1 (1=0-20%)
Post-emergence Test AMARE, percentage damage to the plant (five-point scale) [2]: 1 (1=0-20%)
Post-emergence Test ZEAMX, percentage damage to the plant (five-point scale) (Zea mays (ZEAMX) [3]): 1 (1=0-20%)
Post-emergence Test IPOHE, percentage damage to the plant (five-point scale) [4]: 2 (2=21-40%)
Post-emergence Test ECHCG, percentage damage to the plant (five-point scale) [5]: 1 (1=0-20%)
Post-emergence Test ABUTH, percentage damage to the plant (five-point scale) [6]: 2 (2=21-40%)
percentage damage to the plant, ECHCG [7]: 1 (1=0-20%)
percentage damage to the plant, IPOHE [8]: 1 (1=0-20%)
percentage damage to the plant, SETFA (Setaria faberi (SETFA) [9]): 3 (3=41-60%)
percentage damage to the plant, ZEAMX (Zea mays (ZEAMX) [10]): 1 (1=0-20%)
percentage damage to the plant, AMARE [11]: 2 (2=21-40%)
percentage damage to the plant, ABUTH [12]: 1 (1=0-20%)

CCn1c(C)c(-c2ccc(OC)c(OC)c2)c(=O)c(C(=O)O)c1-c1ccc(Cl)c(Cl)c1 [Compound 99, 2-(3,4-dichlorophenyl)-5-(3,4-dimethoxyphenyl)-1-ethyl-6-methyl-4-oxo-pyridine-3-carboxylic acid]
Post-emergence Test SETFA, percentage damage to the plant (five-point scale) (Setaria faberi (SETFA) [1]): 4 (4=61-80%)
Post-emergence Test AMARE, percentage damage to the plant (five-point scale) [2]: 3 (3=41-60%)
Post-emergence Test ZEAMX, percentage damage to the plant (five-point scale) (Zea mays (ZEAMX) [3]): 2 (2=21-40%)
Post-emergence Test IPOHE, percentage damage to the plant (five-point scale) [4]: 2 (2=21-40%)
Post-emergence Test ECHCG, percentage damage to the plant (five-point scale) [5]: 4 (4=61-80%)
Post-emergence Test ABUTH, percentage damage to the plant (five-point scale) [6]: 3 (3=41-60%)
percentage damage to the plant, ECHCG [7]: 3 (3=41-60%)
percentage damage to the plant, IPOHE [8]: 1 (1=0-20%)
percentage damage to the plant, SETFA (Setaria faberi (SETFA) [9]): 4 (4=61-80%)
percentage damage to the plant, ZEAMX (Zea mays (ZEAMX) [10]): 2 (2=21-40%)
percentage damage to the plant, AMARE [11]: 2 (2=21-40%)
percentage damage to the plant, ABUTH [12]: 2 (2=21-40%)
